Measurements taken from US7173021B2, “Synthesis of temozolomide esters as potent anticancer pro-drugs for topical and transdermal applications in treatments of cancers” (Tianjin North Pharm Sci-Tech Co., Ltd., priority 2004, dated 2007).

Tests used:
[1] = test system: M14 (human melanoma); assay: In vitro tumour cell growth inhibition (MTT), M14; type: cell-based; conditions: Homo sapiens, Table 2 experiment, 96 h
Procedure: (§1) Temozolomide (white powder), temozolomide acid (white powder) and temozolomide-8-carboxylate hexyl (white scale crystal) were made in house. For the estimation of in vitro tumour cell growth inhibition, MV3 (human melanoma), M14 (human melanoma), B16 and B16-BL6 (mouse melanoma), SHG-44, TJ899 and TJ905 (human glioma), MCF-7 (human breast), HCT-8 (human colon), A549 (human non small lung), Bel7402 (human hepatocellulor), and BGC-823 (human stomach) were used. All tumour cells were cultured in RPMI-1640 medium supplemented with 10% fetal bovine serum (FBS) at 37° C. in a humidified 5% CO2 incubator.
(§2) After being harvested from culture flasks, a cell suspension of 1×10^4/ml was made by using 1640 RPMI medium supplemented with 10% fetal bovine serum. 100 μl (contains 1000 tumour cells) of the cell suspension was seeded per well of 96-well flat-bottom Costar culture plates at 37° C. in a humidified 5% CO2 incubator for 24 hrs before introducing drugs. Each tested compounds was made for five different concentrations and 100 μl of the each concentration was introduced into parallel three wells; control wells were added with 100 μl of plain medium alone; fluorouracil (a chemotherapeutic antitumour drug) was used as the positive control. Cells were then incubated for 96 h. Proliferative response and cell death were determined using MTT (3-(4,5-dimethylthiazolyl)-2,5-diphenyl-tetrazolium bromide) assay.
(§3) MTT assay: Following incubation of cells with the tested compounds for 96 h, 100 μl of 0.4 mg/ml MTT in RPMI 1640 was added to each well and the plate was incubated at 37° C. for 4 h. The plate was then centrifuged and followed by removal of medium. 150 μl of DMSO was then added to dissolve formazan crystal. DMSO-added plates were placed on a plate shaker for 5 min and absorbance was measured spectrophotometrically at 540 nm (with reference wavelength at 450 nm) using a Benchmark microtiter plate reader (Bio-Rad 550, Bio-Rad Laboratories, CA, U.S.A.).
(§4) The IC50 was calculated from the curve of the tested compound concentrations against the inhibition rate of the tumour cells. Table 1 summarized the experiment results by using six human cancer cell lines, HCT-8 (colon carcinoma), A549 (non small lung carcinoma), MCF-7 (breast), Bel7402 (hepatocellulor carcinoma), BGC-823 (stomach adenocarcinoma), and MV3 (melanoma). Table 2 summarized the results from the experiment results by using two human melanoma cell lines, MV3 and M14, two mouse melanoma cell lines, B16 and B16-BL6, and three human glioma cell lines, TJ899, SHG-44 and TJ905.

[2] = Measured log P, octanol/water; type: physicochemical; conditions: octanol/water system; read-out: measured Log P (mLog P)
Procedure: Log P values of temozolomide (1) and the temozolomide esters were calculated using TSAR (Oxford Molecular, Oxford, UK), Molecular Modeling Pro (ChemSW, Fairfield, Calif.) and Chem Office 7.0 (CambridgeSoft, Cambridge, UK) programmes. Calculated Log P values were verified for temozolomide and the temozolomide hexyl ester by measuring the octanol/water coefficient (Table 4).

[3] = test system: B16-BL6 (mouse melanoma); assay: In vitro tumour cell growth inhibition (MTT), B16-BL6; type: cell-based; conditions: Mus musculus, B16-BL6, Table 2 experiment, 96 h
Procedure: as §1, §2, §3, §4

[4] = In vitro permeation, Franz diffusion cell, silicone membrane; type: in vitro ADME; conditions: 37° C., 8 h, FIGS. 3-5
From the text: Jacketed Franz-type diffusion cells were used throughout the study and the barrier (12) (skin or silicone membrane) was mounted between the two chambers (14, 16) (2.8–3.4 cm^2 available surface area) with the dermal side in contact with the receiver solution (FIG. 2). The diffusion chambers (10) comprised a barrier of skin or silicone membrane (12) mounted between two chambers (14, 16). A cap (18) formed the donor compartment (14). The second receptor compartment (16) contained a receptor cell (20) with a stirring bar (22), sampling port (24) and cover (26). The stirring bar (22) was stirred by means of a magnet plate (28) having a rotating magnet. The receptor compartment comprised a water jacket (30) having a water inlet (32) and a water outlet (34).
Three types of materials were used in permeation studies. • 1. Silicone membrane (Silastic Medical Grade, 500-5, Dow Corning 0.005 in thick) was cut into circular sections (2 cm diameter) and washed with double distilled water prior to use. • 2. Full-thickness rat skin was obtained from Male Wistar rats aged 10 to 12 weeks and weighing 250 to 300 g, which were sacrificed by cervical dislocation, the abdomen shaved and the intact skin removed by dissection. Following removal of fat tissue, the skin was cut into circular pieces and used immediately. • 3. Samples of adult human epidermis were purchased from the Stephen Kirby Skin Bank (UK). The samples were from the leg, were stored at −18° C. and used within one week. Experiments
The membrane (as detailed above) was mounted on the diffusion cell (10), on which the surface area available for diffusion of each cell was about 2.8–3.4 cm^2. The cell cap (18) was placed on the membrane (12), and it was sealed with Parafilm® connecting the cell cap, membrane, and receptor cell. The capacity of each receptor cell was around 25–26 ml, which was filled with receptor solution and was completely in contact with the membrane sheet. During the course of experiment, the solution was continuously stirred by teflon-coated magnetic bar (22) placed in the cell (20). The temperature was maintained at 37° C. by a thermostatic water pump that circulated the water through the jacket (30) surrounding the cell body. The system was allowed to equilibrate under these conditions for half an hour. Finally, the prepared sample solution (2 ml) was added into the donor cap cell, and it was sealed with Parafilm® to minimize the evaporation of donor solution. 1 ml of receptor solution was removed every 30 minutes for 5 hours and then every 60 minutes for a further 3 hours. The volumes withdrawn were always replaced with equal volumes of fresh receptor solution to maintain constant volume. The concentration of each sample solution was determined by using HPLC.
For every sample, six determinations were performed on human and rat skin, and three determinations were carried out through artificial silicone membrane.
As stated above, after the removal of receptor solution, the receiver compartment was refilled with an identical volume of receptor fluid. This causes of the dilution of receptor solution leading to an under determination of the sample concentration. As a consequence, it was necessary to mathematically correct each successive sample concentrations, in the present invention, which was determined by applying the following equation:
[formula] where Ct is the actual current concentration of drug in the receptor phase at time t, Cmt is the apparent (i.e. measured) current concentration of drug in the receptor phase, Vs is the sample volume withdrawn for analysis, Vr is the volume of receptor solution, and ΣCm is the summed total of the previous measured concentrations.
Finally, the amount of drug penetrating the skin per unit area was calculated by dividing the obtained concentrations by the surface area available for diffusion cell and this value was different for each individual cell. […]

[5] = test system: TJ899 (human glioma); assay: In vitro tumour cell growth inhibition (MTT), TJ899; type: cell-based; conditions: Homo sapiens, Table 2 experiment, 96 h
Procedure: as §1, §2, §3, §4

With `CCCCCCOC(=O)c1ncn2c(=O)n(C)nnc12` [temozolomide hexyl ester, Hexyl 3,4-dihydro-3-methyl-4-oxoimidazo[5,1-d]-1,2,3,5-tetrazine-8-carboxylate] the IC50 [1] was greater than 100 µg/mL, the logP [2] was 2.56 and the IC50 [3] was greater than 100 µg/mL. The “Permeation through synthetic silicone membrane” value [4] was “passed through the membrane far more efficiently” and the IC50 [5] was greater than 100 µg/mL.
